Experimental data: US12258574B2, “Methods and compositions for transducing lymphocytes and regulating the activity thereof” (Exuma Biotech Corp., priority 2016, dated 2025)
Counter-ions that a name gives are not always drawn.

B1: T1B: an anti-Target 1 MRB-CAR from the series of candidate MRB-CARs in Example 3 (protein)
chain: EVQLVQSGAEVKKPGATVKISCKVSGYSFWGATMNWIRQPPGKGLEWIGLIKPSNGGTSYNQKFKGRVTISADKSISTAYLQWSSLKASDTAMYYCAHGHYESYEAMDYWGQGTLVTVSSGGGGSGGGGSGGGGSDIQMTQSPSSLSASVGDRVTITCKASQDVVSAVAWYQQKPGQAPRLLIYWQDTRHTGVPSRFSGSGSGTEFTLTISSLQPDDFATYYCQEHFSPPLTFGQGTKVEIKFWVLVVVGGVLACYSLLVTVAFIIFWVRSKRSRLLHSDYMNMTPRRPGPTRKHYQAYAAARDFAAYRSRVKFSRSADAPAYQQGQNQLYNELNLGRREEYDVLDKRRGRDPEMGGKPRRKNPQEGLYNELQKDKMAEAYSEIGMKGERRRGKGHDGLYQGLSTATKDTYDALHMQALPPR

Columns and labels:
[1] = Deep sequencing and sequence family analysis of parallel assessment populations, acyclovir candidates; format: binding; details: for Enrichment rate: ratio between final positive and penultimate positive population; for presence in the negative population: sequenced final generation library responding to 1X selection buffer; for presence in the counter-targets population: sequenced final generation library responding to counter-targets
Text: The Illumina MiSeq system (San Diego, CA) was implemented to sequence the aptamer libraries after parallel assessment using a single-end read technique. Deep sequencing and subsequent data analysis reduces the large number of screening rounds traditional SELEX requires, which may introduce error and bias due to the screening process (Schütze et al., 2011). Five samples were sequenced: the final generation library that responded to acyclovir, the final generation library that responded to the counter-targets, the final generation library that responded to 1× selection buffer (negative condition), the penultimate generation library that responded to acyclovir, and the final generation library that responded to the additional target of interest, penciclovir. From these sets of data, sequence families were constructed at 95% homology (sequence similarity considering mutations, deletions, and insertion) for aptamer candidate identification. There were 1,711,535 raw sequences (124,600 unique sequences) from the library that responded to acyclovir and 2,074,832 raw sequences (110,149 unique sequences) from the library that responded to penciclovir.
Sequence family construction focused primarily on sequence similarity. This means that a sequence's frequency in the positive target population was factored in, but greater emphasis was placed on the degree of variation between similar sequences, with 95% homology being the minimum requirement (100% match over the entire sequence is not necessary to join a family, up to 2 bases can be mismatched, inserted, or deleted). One would therefore expect families with the greatest number of members to rank highly as aptamer candidates. […] Under these conditions, several candidate families appeared to be strong candidates for binding acyclovir (Table 2) and penciclovir.

[2] = Qualitative PAGE assessment of selected aptamers after graphene oxide selection; format: binding; details: 0.5 mM MgCl2, 37° C., 0.5 μM aptamer, 1 μM target or counter-targets
Procedure: Qualitative PAGE assessment of selected aptamers was performed. Individually synthesized and transcribed aptamers were subjected to selection on Graphene Oxide (GrO) under physiological Mg++ (0.5 mM) and elution with either acyclovir (+) or counter-targets (×). The specifically eluted aptamer fractions for each sample were subjected to PAGE for analysis.
Final library concentration was 0.5 μM, target/counter-targets concentration was 1 μM (incubation volume was 200 μl).
After target/counter-target incubation, 250 μg of GrO (Angstrom Materials (Dayton, OH) was added to adsorb unbound candidate (10-minute incubation at 37° C.).
Samples were centrifuged for 5 minutes at 7,000×g. […] Running buffer was 1×TBE (supplier: Amresco/VWR; catalog #0658-20L, diluted using DI water). DNA ladder was 20/100 DNA ladder (IDT). Gels stained with Gel Star (Lonza, 50535) and imaged on a blue light transilluminator.

CHO-Target 1 cells = test: pH shift cytotoxicity assay / HCl switch RTCA killing assay (xCELLigence); format: cell-based
Procedure: The cytotoxic activity of transduced T cells before and after pH change by addition of NaHCO3 or NaOH was measured using the xCELLigence System. Briefly, one day before the experiment, target cells (CHO cells stably transfected with a construct to express Target 1 on the cell surface (CHO-Target 1 cells)), were seeded into a 96-well E-plate (ACEA; San Diego, CA) at 10,000 cells/well with X-VIVO 15 media containing 40 mM HEPES and 40 mM PIPES, pH 6.7. Cryopreserved effector cells previously transduced with either lentiviral particles containing the nucleic acid encoding T1B or C1 (T1BVP and C1VP, respectively) produced as discussed above, were thawed and cultured for two days in X-VIVO 15 media containing 100 IU/mL of IL-2 (R&D Systems, Minneapolis, MN). On the day of the experiment, cells transduced with T1BVP or C1VP were washed and resuspended in X-VIVO 15 media containing 40 mM HEPES and 40 mM PIPES, pH 6.7 and then added into the experimental wells at effector cell/target cell ratios (E/T) of 1:1.
Impedance readings measured on the xCELLigence System (ACEA) were taken every 5 minutes and reported as the Cell Index (CI) to quantitate cell confluency as a measure of cell proliferation/cell lysis. Approximately 3 hours after effector cell addition, 8 μl of 7.5% NaHCO3 or 14 μl of 0.5 M NaOH was added into the wells with X-VIVO 15 media containing 40 mM HEPES and 40 mM PIPES, pH 6.7 to increase the pH from 6.7 to 7.4. Impedance readings were continued for approximately 20 hours after effector cell addition. Percentage of specific cytolysis was calculated as follows ((CI Target+C1VP transduced effector T cells)−(CI Target+T1BVP transduced effector T cells))/(CI Target+C1VP transduced effector T cells)×100.
The cytotoxic activity of transduced T cells before and after pH change by addition of HCl was measured using the xCELLigence System. Briefly, one day before the experiment, CHO-Target 1 cells were seeded into a 96 well E-plate at 10,000 cells/well with X-VIVO 15 media containing 40 mM HEPES and 40 mM PIPES, pH 7.4. Cryopreserved effector cells previously transduced with either C1VP or T1BVP, were thawed and cultured for two days in X-VIVO 15 media containing 100 IU/mL of IL-2. On the day of the experiment, cells transduced with T1BVP or C1VP were washed and resuspended in X-VIVO 15 media containing 40 mM HEPES and 40 mM PIPES, pH 7.4 and then added into experimental wells at effector cell/target cell ratios (E/T) of 1:1.
Impedance readings were taken every 5 minutes and reported as the Cell Index (CI). […] Impedance readings were continued for approximately 20 hours after effector cell addition. Percentage of specific cytolysis was calculated as follows ((CI Target+C1VP transduced effector T cells)−(CI Target+T1BVP transduced effector T cells))/(CI Target C1VP)×100.

deoxyguanosine switch = test: Tests of natural deoxyguanosine riboswitch with nucleoside analogues; format: binding
Text: This example provides a method to screen libraries based on natural structural riboswitches that bind guanosine and deoxyguanosine. These riboswitches were used as scaffolds to develop biased libraries for the selection of aptamers that bind specifically to a ligand nucleoside analogue. Previously, isothermal titration calorimetry has been used to show these natural riboswitches bind to their native ligands. […] The single-stranded regions of the riboswitch were targeted for mutation and variant sequences that specifically respond to acyclovir or penciclovir were selected for.

[3] = Thermal denaturation by differential scanning calorimetry (DSC)
Procedure: At least 10 nmole of each candidate was lyophilized, and resuspended in 1× Binding Buffer (50 mM HEPES, 100 mM KCl, 0.5 mM MgCl2, pH 7.3) on the day of binding assessment.
All analyses were conducted in 1× Binding Buffer and all water used was DEPC-treated. All analytes were resuspended first in DEPC-treated water then diluted to their final listed concentration in 1× Binding Buffer. Prior to loading of the DSC (GE Healthcare MicroCal VP-DSC), the samples were degassed at 25° C. for 10 minutes.

Molecule | Enrichment rate [1] | presence in the negative population [1] | response in qualitative PAGE assessment (elution from GrO with acyclovir vs counter-targets) [2] | presence in the counter-targets population [1] | further results
F1A-769: acyclovir aptamer candidate, most prevalent sequence of family 769; SEQ ID NO:147 (ACAGGTCAGCATAATGTGCTAGTGCGCCTTCAAACCTATTTAGAGACT; RNA riboswitch aptamer, listed DNA covers non-stem region only, further chemistry not given here) [Candidate F1A-769] | performing adequately | minimally detected | selective positive response | – | –
Cl [HCl] | – | – | – | – | effect on cytotoxic activity of MRB-CAR T cells of switching media pH from 7.4 to 6.7 (CHO-Target 1 cells; 8 μl of 1 M HCl about 3 hours after effector cells, E/T 1:1): increased
F1A-996: acyclovir aptamer candidate; SEQ ID NO:221 (ACAGGGTAGCATAATGGCTTAGGACGCCTTCAAACCTATCAAGACT; RNA riboswitch aptamer, listed DNA covers non-stem region only, further chemistry not given here) [Candidate F1A-996] | – | performing less well | selective positive response | show up to a small degree | –
Nc1nc2c(ncn2COCCO)c(=O)[nH]1 [acyclovir] | – | – | – | – | interaction with deoxyguanosine switch (deoxyguanosine switch): interacted weakly
Nc1nc2c(ncn2CCC(CO)CO)c(=O)[nH]1 [penciclovir] | – | – | – | – | interaction with deoxyguanosine switch (deoxyguanosine switch): interacted weakly
F1A-795: acyclovir aptamer candidate, most prevalent sequence of family 795; SEQ ID NO:164 (ACAGCGAAGCATAATGGCTACTGACGCCCTCAAACCCTATTTGCAGACT; RNA riboswitch aptamer, listed DNA covers non-stem region only, further chemistry not given here) [Candidate F1A-795] | – | performing less well | selective positive response | not detected | thermal denaturation transition ([3]; absence of acyclovir, 7.2 μM F1A-795, 1X Binding Buffer): about 60 °C; binding of acyclovir to the aptamer domain ([3]; concluded from stabilizing effect in DSC): bound by acyclovir
F1A-961: acyclovir aptamer candidate; SEQ ID NO:220 (ACACCGTAGCATAATGGGCTACTGCCGCCGTCGACCTTTTGGAGACT; RNA riboswitch aptamer, listed DNA covers non-stem region only, further chemistry not given here) [Candidate F1A-961] | – | performing less well | – | show up to a small degree | –
F1A-582: acyclovir aptamer candidate, most prevalent sequence of family 582; SEQ ID NO:108 (ACAGCTTAGCGTAATGGCTACTGACGCCGTCCAAACCTATTTACAGACT; RNA riboswitch aptamer, listed DNA covers non-stem region only, further chemistry not given here) [Candidate F1A-582] | greatest enrichment rate | did not perform well | – | did not perform well | –
[Na+].[OH-] [NaOH] | – | – | – | – | effect on cytotoxic activity of MRB-CAR T cells of raising media pH from 6.7 to 7.4 (CHO-Target 1 cells; added about 3 hours after effector cells, E/T 1:1): inhibited the cytotoxic activity
F1A-935: acyclovir aptamer candidate, most prevalent sequence of family 935; SEQ ID NO:183 (ACAGGGTAGCATAATGGGCTACTTGACGCCTTCACCTATTTGTAGACT; RNA riboswitch aptamer, listed DNA covers non-stem region only, further chemistry not given here) [Candidate F1A-935] | performing adequately | not found | – | not detected | –
F1A-946: acyclovir aptamer candidate, most prevalent sequence of family 946; SEQ ID NO:198 (ACAGCGTAGCATAATGGGCTGCAGACGCCGTCAAACCTATTTGCAGACT; RNA riboswitch aptamer, listed DNA covers non-stem region only, further chemistry not given here) [Candidate F1A-946] | performing adequately | not found | selective positive response | not detected | –
B1 | – | – | – | – | cytotoxic activity on CHO-Target 1 cells (CHO-Target 1 cells; pH 7.4, E/T 1:1): low
